Target: T1, Arabidopsis HPPD (Arabidopsis thaliana, UniProt P93836)
T1 construct: made in house; host or cells: E. coli BL21 (DE3) codon+ RP
T1 sequence (P93836 1-445): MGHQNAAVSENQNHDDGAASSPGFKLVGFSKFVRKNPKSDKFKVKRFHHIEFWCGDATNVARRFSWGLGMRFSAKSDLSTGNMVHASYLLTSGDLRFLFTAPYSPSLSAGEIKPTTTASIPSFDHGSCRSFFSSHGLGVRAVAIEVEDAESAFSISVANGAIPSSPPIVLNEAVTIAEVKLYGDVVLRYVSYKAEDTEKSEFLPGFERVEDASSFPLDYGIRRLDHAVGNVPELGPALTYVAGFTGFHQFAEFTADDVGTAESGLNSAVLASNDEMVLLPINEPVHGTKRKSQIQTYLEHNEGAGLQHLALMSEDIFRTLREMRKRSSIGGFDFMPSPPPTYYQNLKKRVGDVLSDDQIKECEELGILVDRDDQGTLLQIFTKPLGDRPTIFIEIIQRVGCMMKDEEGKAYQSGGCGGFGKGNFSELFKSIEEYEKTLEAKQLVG
Test: Rate of binding (kon) by radiolabelled inhibitor and separation of bound from free
Excerpt: Alternatively estimates of kon values can be determined more directly by mixing HPPD with radio or otherwise labelled herbicide inhibitor and monitoring the progress of the binding reaction, optionally by rapidly isolating the enzyme inhibitor complex and/or by any one of a number of methods (for example fluorimetry, EPR, NMR, radiodetection etc). For example, the reaction with HPPD may be started by addition of radiolabelled herbicide, allowed to proceed for a series of different times and rapidly quenched by addition and mixing with a large excess of unlabelled inhibitor. In this case the extent of binding at different times may, for example, be monitored by using ultrafiltration, binding to filters or gel filtration to separate radiolabel-bound to HPPD from unbound label which fractions can then each be quantitated by scintillation counting. […]
The measurements of koff are based on physical rather than assay-based measurements. Similarly, kon rates can also be measured by a direct physical method, in this case the use of radiolabelled inhibitor and physical separation of protein bound from free inhibitor. […] The rates of binding determined on the basis of measurement of the amount of radiolabelled inhibitor bound after various times of reaction are found to correlate very well with measurements based upon assay-based measurements of the rate of decline of enzyme activity. […]

| Compound | kon (without 25% v/v glycerol) | rate constant of subsequent much slower binding to the remaining site (25% v/v glycerol) |
| --- | --- | --- |
| Cc1nc(C(F)(F)F)ccc1C(=O)C1C(=O)C2CCC(C2)C1=O (centres unmarked) [Structure II] | 800000 M⁻¹ s⁻¹ |  |
| CS(=O)(=O)c1ccc(C(=O)C2C(=O)CCCC2=O)c([N+](=O)[O-])c1 [Structure I, 2-(Nitro-4-methanesulphonylbenzoyl)-cyclohexane-1,3-dione, reference compound] |  | ~1000 M⁻¹ s⁻¹ |
